Test: Viscosity of aqueous solution, E-type viscometer
Format: physicochemical
Conditions: 37° C.
Method: Tables 1 and 2 shown the constituent materials of the respective layers of the orally-administered agents obtained in the respective Examples and the respective Comparative Examples and the contents thereof. […] Furthermore, the viscosity of the water absorption promoter in the Table 1 and the viscosity of the antiadhesive agent in the Table 2 denote a viscosity at 37° C. of an aqueous solution of 5 mass % of the water absorption promoter and the antiadhesive agent, respectively. Each viscosity was measured with an E-type viscometer (a product of Tokimec, Inc.).

With OC[C@@H](O)[C@@H](O)[C@H](O)[C@H](O)CO [Man, mannitol] the “Viscosity of antiadhesive agent” value (aqueous solution of 5 mass % of the antiadhesive agent) was 0.87 mPa · s and the “Viscosity of water absorption promoter” value (aqueous solution of 5 mass % of the water absorption promoter) was 0.87 mPa · s.
